This is an account of results in article PMC4838876, “Multivalent display of minimal Clostridium difficile glycan epitopes mimics antigenic properties of larger glycans” (Nature Communications, 2016).

One test has as its system mAb 2C5 (anti-PS-I IgG1). The test is described as follows: Kinetic SPR of glycans binding to captured mAb 2C5. Set-up: species or system mouse. Particulars: for off-rate: mAb 2C5; for Kd: mAb 2C5, PBS, 25 °C. How it is done: (§1) Kinetic SPR experiments were performed to determine the binding strengths of the mAbs to PS-I glycans expressed as dissociation constants (KD)[8] (Fig. 5a). […] Overall, the SPR measurements (summarized in Table 1) confirmed results obtained by glycan microarray presented above.
Figure 5 KD values of anti-PS-I mAbs binding to 1 and 3 inferred by SPR. (a) mAbs were captured with an anti-mouse IgG antibody immobilized on the SPR sensor surface. Glycan antigens were passed over the surface to monitor changes in the response unit signals. (b,c) Representative sensorgrams showing reference-subtracted binding signals to 1 (b) and 3 (c). KD values were calculated by fitting the curves to a 1:1 Langmuir binding model (black overlaid curves) or with a steady-state affinity model (response units versus concentration plots). Indicated KD values are mean±s.e.m. of n=3 or mean with minimum and maximum values in parentheses of n=2 independent experiments. See Supplementary Figs 3–5 for details.
(§2) Binding analyses were carried out on a Biacore T100 instrument (GE Healthcare). CM5 sensor chips were functionalized with about 10,000 RUs of α-mouse IgG capture antibody, using the Mouse Antibody Capture Kit and the Amine Coupling Kit (GE Healthcare) according to the manufacturer's recommendations. A blank-immobilized flow cell was used as reference, to compensate for nonspecific binding of antibodies or oligosaccharides to the sensor chip surface. Kinetic measurements were performed with the Biacore T100 Control software using the ‘Kinetics' function. PBS was used as running buffer and all measurements were performed at 25 °C and a flow rate of 30 μl min^−1. About 500 RUs of mAbs were captured at a concentration of 50 μg ml^−1 diluted in PBS and oligosaccharides or OAAs (in PBS) at the indicated concentrations were passed through, using the standard parameters for association and dissociation times unless mentioned otherwise. Flow cells were regenerated with 10 mM glycine-HCl pH 1.7 for 30 s. Kinetic evaluation of binding responses was performed with the Biacore T100 Evaluation software, using reference-subtracted sensorgrams. Two different kinetic models, a 1:1 binding Langmuir model and a two-state reaction model, which assumes a conformational change in the antibody–analyte complex, were used to fit the data. The fitting quality was evaluated by investigating respective residual plots, χ^2 and s.e. values for on- and off-rates. Both models yielded similar good fittings. We chose the 1:1 binding model over the two-state reaction model to calculate on- and off-rates, as well as KD values, as this model makes fewer assumptions. When on-rates and/or off-rates were outside of the measurable ranges of the instrument, the steady-state affinity model was used instead to determine KD values. The 1:1 binding model was generally preferred over the steady-state affinity model in cases where both could be applied. In these cases, the two models yielded roughly similar KD values. Thermodynamic parameters were inferred by using the ‘Thermodynamics' function of the Biacore T100 Control software with the same experimental set-up described above. Temperatures from 13 to 37 °C were chosen. Values for ΔG, ΔH and ΔS were inferred by van't Hoff analysis. IM analysis was carried out by Ridgeview Diagnostics AB, Uppsala, Sweden.
Supplementary Figure 3 | KD values of mAb 2C5 to PS‐I oligosaccharide antigens inferred by SPR. […]

For test [1], the target named is mAb 10D6 (anti-PS-I IgG1). Nature of the test: Kinetic SPR of glycans binding to captured mAb 10D6. Set-up: species or system mouse. As to conditions: mAb 10D6, PBS, 25 °C, mean±s.e.m. n=3 or mean (min;max) n=2. How it is done: as §1
Binding analyses were carried out on a Biacore T100 instrument (GE Healthcare). CM5 sensor chips were functionalized with about 10,000 RUs of α-mouse IgG capture antibody, using the Mouse Antibody Capture Kit and the Amine Coupling Kit (GE Healthcare) according to the manufacturer's recommendations. A blank-immobilized flow cell was used as reference, to compensate for nonspecific binding of antibodies or oligosaccharides to the sensor chip surface. Kinetic measurements were performed with the Biacore T100 Control software using the ‘Kinetics' function. PBS was used as running buffer and all measurements were performed at 25 °C and a flow rate of 30 μl min^−1. About 500 RUs of mAbs were captured at a concentration of 50 μg ml^−1 diluted in PBS and oligosaccharides or OAAs (in PBS) at the indicated concentrations were passed through, using the standard parameters for association and dissociation times unless mentioned otherwise. […] The fitting quality was evaluated by investigating respective residual plots, χ^2 and s.e. values for on- and off-rates. […]
All sensorgrams were recorded on a Biacore T100 instrument (GE […]

In test [2] the test system is anti-PS-I mAbs 2C5, 10A1 and 10D6. Nature of the test: Kinetic SPR, summary over the three anti-PS-I mAbs. As to conditions: for Kd: SPR, range over mAbs 2C5, 10A1, 10D6. The format is binding, mouse. How it is done:
as §1
as §2, with “The 1:1 binding model was generally preferred over the steady-state affinity model in cases where both could be applied. In these cases, the two models yielded roughly similar KD values. Thermodynamic parameters were inferred by using the ‘Thermodynamics' function of the Biacore T100 Control software with the same experimental set-up described above. Temperatures from 13 to 37 °C were chosen. Values for ΔG, ΔH and ΔS were inferred by van't Hoff analysis. IM analysis was carried out by Ridgeview Diagnostics AB, Uppsala, Sweden.” left out

Setting [3] is: mean±s.e.m. n=3 or mean (min;max) n=2.

Structures are written as SMILES.

In general, Kd refers to the concentration at which binding is half-saturated. Low readings indicate higher affinity, high ones lower affinity. In the test on mAb 2C5 (anti-PS-I IgG1), `C[C@@H]1O[C@@H](O[C@@H]2[C@@H](O)[C@H](O[C@H]3[C@H](O[C@@H]4O[C@@H](C)[C@H](O)[C@@H](O)[C@H]4O)[C@@H](O)[C@@H](O[C@H]4[C@@H](OCCCCCN)O[C@H](CO)[C@@H](O)[C@@H]4O)O[C@@H]3CO)O[C@H](CO)[C@H]2O)[C@H](O)[C@H](O)[C@H]1O` [Compound 1] returned an off-rate of 0.0019 s⁻¹. Further, the Kd is 0.163 ± 0.023 µM on mAb 2C5 (anti-PS-I IgG1) (setting [3]), 0.169 µM in test [1] and 0.163 to 0.245 µM in test [2]. Further, the off-rate koff in the test on mAb 2C5 (anti-PS-I IgG1) (mAb 2C5, dissociation model fit, mean±s.e.m. n=3 or mean (min;max) n=2) is 1.6±0.1 × 10^-3 s^-1. Besides, the “fold lower KD values than minimal glycan epitope 3” value in test [2] (KD of 1 compared with 3) is given as “about 100 fold”.
The compound `C[C@@H]1O[C@@H](O[C@@H]2[C@@H](O)[C@H](OCCCCCN)O[C@H](CO)[C@H]2O)[C@H](O)[C@H](O)[C@H]1O` [Compound 3, Rha-(1→3)-Glc] registered an off-rate in the test on mAb 2C5 (anti-PS-I IgG1) of 0.0016 s⁻¹. The Kd is 18 µM on mAb 2C5 (anti-PS-I IgG1) (setting [3]), 37.5 ± 0.4 µM in test [1] and 5.9 to 37.5 µM in test [2].
